Reference: US5968526A, “T cell epitopes of the major allergens from Dermatophagoides (house dust mite)” (Immulogic Pharamaceutical Corporation, priority 1995, dated 1999)

Test system: T cell lines primed in vitro to Der p II
Assay: secondary proliferation of Der p II-primed T cell lines (Examples VIII, X, XI)
Format: cell-based, human
Conditions: Der p II T-cell map and analogs
Procedure, shortened: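 PBMC from house dust mite-allergic patients primed in vitro with native or recombinant Der p II at 20 μg/ml (or recombinant at 3 μg/ml), with x-irradiated (3500 Rads) autologous PBMC as antigen-presenting cells. Lines then challenged with Der p II-derived peptides; proliferation expressed as S.I., ranked sum scoring top three responses 3, 2, 1.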

| Substance | T-cell reactivity (DPII-22 series development) |
| --- | --- |
| DP II-22.14: DKELEAVFEANQNTKTAKAE; unique peptide | almost the same T-cell reactivity as the "parent" peptide |
| DP II-22: QLEAVFEANQNTKTAKIEIKASIDGLEV | exhibits most of the reactivity found in the individual peptides |
